In patent publication US10072025B2, “Ethyl N-boc piperidinyl pyrazolo pyridones as Janus kinase inhibitors” (Merck Sharp & Dohme Corp., priority 2014, dated 2018) one finds IC50 data, which are given here for 20 compounds.

One may read the IC50 as the midpoint of a concentration-inhibition curve.

One experiment concerns the target JAK1 (Homo sapiens (Human), UniProt P23458). Put plainly: Jak Biochemical HTRF Assay (JAK1). Particulars: recombinant purified GST-tagged catalytic domain; HTRF; [ATP] 31.8 μM; [E] 1.405 nM. The procedure:
(§1) Jak Biochemical HTRF Assay Protocol
(§2) The ability of compounds to inhibit the activity of JAK1, JAK2, JAK3, and Tyk2 was measured using a recombinant purified GST-tagged catalytic domain for each enzyme (Invitrogen JAK1 #M4290, JAK2 #M4290, JAK3 #M4290, Tyk2 #M4290) in an HTRF format biochemical assay. […] The basic assay protocol is as follows: First, 250 nL of diluted compounds in DMSO were dispensed into the wells of a dry 384-well Black plate (Greiner #781076) using a Labcyte Echo 555 acoustic dispenser. Subsequent reagent additions employed an Agilent Bravo. Next, 18 μL of 1.11× enzyme and 1.11× substrate in 1× assay buffer (Invitrogen kinase buffer # PV3189, 2 mM DTT, 0.05% BSA) were added to the wells and shaken and then preincubated for 30 minutes at room temperature to allow compound binding to equilibrate. After equilibration, 2 μL of 10×ATP in 1× assay buffer was added to initiate the kinase reaction and the plates were shaken and then incubated at room temperature for 120 minutes. At the end of the incubation, 20 μL of 2× stop buffer (streptavidin-Dylight 650 (Thermo #84547B/100 mL), Eu-tagged pY20 antibody (Perkin Elmer #AD0067), EDTA, HEPES, and Triton) was added to quench the reaction. Plates were shaken and centrifuged and then incubated 60 minutes at room temperature and then read on a Perkin Elmer Envision (Xex=337 nm, λem=665 and 615 nm, TRF delay time=20 μs). HTRF signal=10,000*665 nm reading/615 nm reading. After normalization to untreated controls, the percent inhibition of the HTRF signal at each compound concentration was calculated. The plot of percent inhibition versus the log of compound concentration was fit with a 4-parameter dose response equation to calculate IC50 values.
(TR-FRET usually uses a lanthanide donor and a delayed reading to cut background.)

Another experiment has as its target JAK2 (Homo sapiens (Human), UniProt O60674). Briefly: Jak Biochemical HTRF Assay (JAK2). Particulars: recombinant purified GST-tagged catalytic domain, [ATP] 8.5 μM, [E] 0.052 nM. The procedure:
as §1, §2

Chain of JAK1 (P23458 875-1153): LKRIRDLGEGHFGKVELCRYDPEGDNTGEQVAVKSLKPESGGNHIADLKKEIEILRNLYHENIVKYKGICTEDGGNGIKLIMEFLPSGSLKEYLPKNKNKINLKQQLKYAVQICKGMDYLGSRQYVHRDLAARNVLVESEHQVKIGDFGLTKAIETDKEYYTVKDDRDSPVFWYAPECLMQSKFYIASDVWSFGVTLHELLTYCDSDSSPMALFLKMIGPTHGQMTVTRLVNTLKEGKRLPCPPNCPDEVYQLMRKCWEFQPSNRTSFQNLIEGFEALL
Chain of JAK2 (O60674 849-1124): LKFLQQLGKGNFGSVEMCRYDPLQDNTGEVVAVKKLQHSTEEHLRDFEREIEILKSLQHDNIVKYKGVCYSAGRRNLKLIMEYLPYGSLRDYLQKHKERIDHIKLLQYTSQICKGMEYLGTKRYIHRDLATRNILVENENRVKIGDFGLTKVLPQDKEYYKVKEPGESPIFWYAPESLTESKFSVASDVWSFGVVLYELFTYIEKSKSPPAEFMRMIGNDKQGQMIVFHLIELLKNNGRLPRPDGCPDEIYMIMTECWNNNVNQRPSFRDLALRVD

As to `CCC1(n2nc(Nc3ccc(C(=O)N4CCOC[C@@H]4C)c(C)c3)c3c(=O)[nH]ccc32)CCN(C(=O)OC(C)(C)C)CC1` [Example 2-6, (S)-tert-butyl 4-ethyl-4-(3-((3-methyl-4-(3-methylmorpholine-4-carbonyl)phenyl)amino)-4-oxo-4,5-dihydro-1H-pyrazolo[4,3-c]pyridin-1-yl) piperidine-1-carboxylate], the IC50 at JAK1 and at JAK2 was 0.51 nM each time.

As to `CCC1(n2nc(Nc3ccc(C(=O)N4CCC(N5CCSCC5)CC4)c(C)c3)c3c(=O)[nH]ccc32)CCN(C(=O)OC(C)(C)C)CC1` [Example 3-12, tert-butyl 4-ethyl-4-[3-({3-methyl-4-[(4-thiomorpholin-4-ylpiperidin-1-yl)carbonyl]phenyl}amino)-4-oxo-4,5-dihydro-1H-pyrazolo[4,3-c]pyridin-1-yl] piperidine-1-carboxylate], the IC50 on JAK1 was 0.56 nM; at JAK2 it was 0.68 nM.

`CCC1(n2nc(Nc3ccc(C(C)(OC)C(F)(F)F)cc3)c3c(=O)[nH]ccc32)CCN(C(=O)OC(C)(C)C)CC1` (stereo not drawn) [Example 2-41]: the IC50 at JAK1 is 4.4 nM; at JAK2 it was 6.87 nM.

`CCC1(n2nc(Nc3ccc(C(=O)N4CCC(F)(F)CC4)c(C)c3)c3c(=O)[nH]ccc32)CCN(C(=O)OC(C)(C)C)CC1` [Example 2-26, tert-butyl 4-(3-(4-(4,4-difluoropiperidine-1-carbonyl)-3-methylphenylamino)-4-oxo-4,5-dihydropyrazolo [4,3-c]pyridin-1-yl)-4-ethylpiperidine-1-carboxylate]: the concentration for half-maximal inhibition (IC50) on JAK1 was 1.19 nM; at JAK2, 1.44 nM.

`CCC1(n2nc(Nc3ccc(C(=O)N4C[C@@H](C)O[C@@H](C)C4)c(C)c3)c3c(=O)[nH]ccc32)CCN(C(=O)OC(C)(C)C)CC1` [Example 3-4, tert-butyl 4-{3-[(4-{[(2R,6S)-2,6-dimethylmorpholin-4-yl]carbonyl}-3-methylphenyl)amino]-4-oxo-4,5-dihydro-1H-pyrazolo[4,3-c]pyridin-1-yl}-4-ethylpiperidine-1-carboxylate]: the values for the IC50 on JAK1 and at JAK2 were 1.09 nM and 1.17 nM, respectively.

`CCC1(n2nc(Nc3ccc(C(=O)N4[C@@H](C)COC[C@@H]4C)c(C)c3)c3c(=O)[nH]ccc32)CCN(C(=O)OC(C)(C)C)CC1` (single isomer, unassigned) [Example 2-19, tert-butyl 4-(3-(4-((3S,5S or 3R,5R)-3,5-dimethylmorpholine-4-carbonyl)-3-methylphenylamino)-4-oxo-4,5-dihydropyrazolo[4,3-c]pyridin-1-yl)-4-ethylpiperidine-1-carboxylate]: the 50% inhibitory concentration (IC50) on JAK1 came out at 0.85 nM.

On to `CCC1(n2nc(Nc3ccc([C@]4(C(F)(F)F)CCCN4)cc3)c3c(=O)[nH]ccc32)CCN(C(=O)OC(C)(C)C)CC1` (single isomer, unassigned) [Example 2-35, (S or R)-tert-butyl 4-ethyl-4-(4-oxo-3-(4-(2-(trifluoromethyl)pyrrolidin-2-yl)phenylamino)-4,5-dihydropyrazolo[4,3-c]pyridin-1-yl) piperidine-1-carboxylate], for which the IC50 on JAK1 worked out at 2.82 nM; at JAK2 it was 3.55 nM.

As for `CCc1cc(Nc2nn(C3(CC)CCN(C(=O)OC(C)(C)C)CC3)c3cc[nH]c(=O)c23)ccc1C(=O)N1CCSCC1` [Example 2-29, tert-butyl 4-ethyl-4-(3-(3-ethyl-4-(thiomorpholine-4-carbonyl)phenylamino)-4-oxo-4,5-dihydropyrazolo[4,3-c]pyridin-1-yl) piperidine-1-carboxylate], the IC50 at JAK1 amounted to 1.79 nM; on JAK2, 2.72 nM.

For the compound `CCC1(n2nc(Nc3ccc4c(c3)CN(C3CCN(C)CC3)S4(=O)=O)c3c(=O)[nH]ccc32)CCN(C(=O)OC(C)(C)C)CC1` [Example 2-30, tert-butyl 4-ethyl-4-(3-((2-(1-methylpiperidin-4-yl)-1,1-dioxido-2,3-dihydrobenzo [d]isothiazol-5-yl)amino)-4-oxo-4,5-dihydro-1H-pyrazolo [4,3-c]pyridin-1-yl) piperidine-1-carboxylate], the figures for the IC50 at JAK1 and at JAK2 were 0.29 nM and 0.36 nM, respectively.

In the case of `CCC1(n2nc(Nc3ccc(C(=O)N4CCO[C@@H](C)C4)c(C)c3)c3c(=O)[nH]ccc32)CCN(C(=O)OC(C)(C)C)CC1` [Example 2-8, (5)-tert-butyl-4-ethyl-4-(3-(3-methyl-4-(2-methylmorpholine-4-carbonyl)phenylamino)-4-oxo-4,5-dihydropyrazolo[4,3-c]pyridin-1-yl) piperidine-1-carboxylate], the IC50 was found to be 0.62 nM at JAK1 and 0.57 nM at JAK2.

Turning to `CCC1(n2nc(Nc3cccc(CC#N)c3)c3c(=O)[nH]ccc32)CCN(C(=O)OC(C)(C)C)CC1` [Example 2-17, tert-butyl 4-(3-((3-(cyanomethyl)phenyl)amino)-4-oxo-4,5-dihydro-1H-pyrazolo [4,3-c]pyridin-1-yl)-4-ethylpiperidine-1-carboxylate], the IC50 turned out to be 0.53 nM on JAK1 and 3.37 nM on JAK2.

On to `CCC1(n2nc(Nc3ccc(C(=O)N4CCOC(=O)C4)c(C)c3)c3c(=O)[nH]ccc32)CCN(C(=O)OC(C)(C)C)CC1` [Example 3-1, tert-butyl-4-ethyl-4-(3-((3-methyl-4-(2-oxomorpholine-4-carbonyl)phenyl)amino)-4-oxo-4,5-dihydro-1H-pyrazolo[4,3-c]pyridin-1-yl)piperidine-1-carboxylate], for which the IC50 at JAK1 came to 0.25 nM; on JAK2, 0.8 nM.

For `CCC1(n2nc(Nc3ccc(C(=O)N4CCCOCC4)c(C)c3)c3c(=O)[nH]ccc32)CCN(C(=O)OC(C)(C)C)CC1` [Example 3-10, tert-butyl 4-ethyl-4-(3-{[3-methyl-4-(1,4-oxazepan-4-ylcarbonyl)phenyl]amino}-4-oxo-4,5-dihydro-1H-pyrazolo[4,3-c]pyridin-1-yl) piperidine-1-carboxylate], the results for the IC50 at JAK1 and at JAK2 were 0.29 nM and 0.43 nM, respectively.

As for `CCC1(n2nc(Nc3ccc4c(c3)CN(C(C)(C)C)S4(=O)=O)c3c(=O)[nH]ccc32)CCN(C(=O)OC(C)(C)C)CC1` [Example 1-2], the IC50 on JAK1 came out at 2.86 nM; on JAK2, 3.4 nM.

Take `CCC1(n2nc(Nc3ccc(C(=O)N4[C@H](C)COC[C@H]4C)c(C)c3)c3c(=O)[nH]ccc32)CCN(C(=O)OC(C)(C)C)CC1` (single isomer, unassigned) [Example 2-20, tert-butyl 4-(3-(4-((3R,5R or 3S,5S)-3,5-dimethylmorpholine-4-carbonyl)-3-methylphenylamino)-4-oxo-4,5-dihydropyrazolo[4,3-c]pyridin-1-yl)-4-ethylpiperidine-1-carboxylate]: at JAK1, the IC50 was found to be 0.79 nM.

In the case of `CCC1(n2nc(Nc3ccc(C(=O)N4CCCOC(C)C4)c(C)c3)c3c(=O)[nH]ccc32)CCN(C(=O)OC(C)(C)C)CC1` (single isomer, unassigned) [Example 3-22, tert-butyl 4-ethyl-4-[3-({3R or 3S-methyl-4-[(2-methyl-1,4-oxazepan-4-yl)carbonyl]phenyl}amino)-4-oxo-4,5-dihydro-1H-pyrazolo [4,3-c]pyridin-1-yl] piperidine-1-carboxylate], the IC50 on JAK2 came to 0.87 nM.

As for `CCC1(n2nc(Nc3ccc(S(=O)(=O)N4CCC[C@H]4C)cc3)c3c(=O)[nH]ccc32)CCN(C(=O)OC(C)(C)C)CC1` (single isomer, unassigned) [Example 2-39, (R or S)-tert-butyl 4-ethyl-4-(3-(4-(2-methylpyrrolidin-1-ylsulfonyl)phenylamino)-4-oxo-4,5-dihydropyrazolo[4,3-c]pyridin-1-yl) piperidine-1-carboxylate], the IC50 at JAK1 turned out to be 2.13 nM.

Turning to `CCC1(n2nc(Nc3ccc(S(=O)(=O)N4CCC[C@@H]4C)cc3)c3c(=O)[nH]ccc32)CCN(C(=O)OC(C)(C)C)CC1` (single isomer, unassigned) [Example 2-38, (S or R)-tert-butyl 4-ethyl-4-(3-(4-(2-methylpyrrolidin-1-ylsulfonyl)phenylamino)-4-oxo-4,5-dihydropyrazolo[4,3-c]pyridin-1-yl) piperidine-1-carboxylate], at JAK1, the IC50 is 2.38 nM.

Take `CCC1(n2nc(Nc3ccc(C(=O)N4CCCOC(C)C4)c(C)c3)c3c(=O)[nH]ccc32)CCN(C(=O)OC(C)(C)C)CC1` (single isomer, unassigned) [Example 3-23, tert-butyl 4-ethyl-4-[3-({3R or 3S-methyl-4-[(2-methyl-1,4-oxazepan-4-yl)carbonyl]phenyl}amino)-4-oxo-4,5-dihydro-1H-pyrazolo [4,3-c]pyridin-1-yl] piperidine-1-carboxylate]: on JAK2, the half-maximal inhibitory concentration (IC50) was 0.7 nM.

As to `CCC1(n2nc(Nc3ccc(C(=O)N4[C@H](C)COC[C@@H]4C)c(C)c3)c3c(=O)[nH]ccc32)CCN(C(=O)OC(C)(C)C)CC1` [Example 2-18, tert-butyl 4-(3-(4-((3S,5R)-3,5-dimethylmorpholine-4-carbonyl)-3-methylphenylamino)-4-oxo-2,3,4,5-tetrahydropyrazolo[4,3-c]pyridin-1-yl)-4-ethylpiperidine-1-carboxylate], the IC50 on JAK1 worked out at 0.61 nM.
